# Assay results published in patent US8202910B2 (Sequella, Inc., priority 2006, dated 2012).
# Like-named read-outs stand apart in the source and are kept apart here.
# Key:
# MDR strain TN587 = experiment: microbe, parasite or virus in culture; format: cell-based, Mycobacterium tuberculosis; settings: for Drug Resistance of MDR Strain: 587 W; for MIC: Mycobacterium tuberculosis
# MDR Strain TN576 = experiment: microbe, parasite or virus in culture; format: cell-based, Mycobacterium tuberculosis; settings: for Drug Resistance of MDR Strain: 576 W1; for MIC: Mycobacterium tuberculosis
# [1] = tested on: M. tuberculosis clinical isolates (drug susceptible and drug resistant); format: cell-based; settings: more than 30 clinical isolates
# MDR strain TN3086 (3806) = experiment: microbe, parasite or virus in culture; format: cell-based, Mycobacterium tuberculosis; settings: for MIC: Mycobacterium tuberculosis; for Drug Resistance of MDR Strain: 3806 W1
# EMB-resistant strain = experiment: microbe, parasite or virus in culture; format: cell-based, M. tuberculosis; settings: Mycobacterium tuberculosis
# INH-resistant MTB strain = experiment: microbe, parasite or virus in culture; format: cell-based, M. tuberculosis; settings: Mycobacterium tuberculosis
Molecule,Drug Resistance of MDR Strain (MDR strain TN587),Drug Resistance of MDR Strain (MDR Strain TN576),"MIC (MDR strain TN587; TN587, strain 587)",MIC (MDR strain TN3086 (3806); strain 3806),MIC (MDR Strain TN576; strain 576),Drug Resistance of MDR Strain (MDR strain TN3086 (3806)),also measured
Capreomycin,S,R,,,,,
"CC(C)=CCC/C(C)=C/CNCCNC1C2CC3CC(C2)CC1C3 (stereo not drawn) [Compound 109, N-Geranyl-N′-(2-adamanthyl)ethane-1,2-diamine]",,,0.2 µg/mL,0.1 µg/mL,0.2 µg/mL,,MIC range [1]: 0.16 to 0.64 µg/mL; MIC (EMB-resistant strain): 0.5 µg/mL; MIC (INH-resistant MTB strain): 0.25 µg/mL
CC1(C)CC2CC(C)(CN2CCNC[C@@H]2CCC3C[C@@H]2C3(C)C)C1 [MP 116],,,6.25 µg/mL,3.15 µg/mL,3.15 µg/mL,,
"N[C@@H]1CON=C1O [Cyc, Cycloserine]",S,S,,,,,
C[C@@H]1C2C[C@@H](C[C@H]1NCCNC[C@@H]1CCC3C[C@@H]1C3(C)C)C2(C)C [MP 117],,,3.15 µg/mL,3.15 µg/mL,3.15 µg/mL,,
CC1(C)C2CCC(CNCCNCC(c3ccccc3)c3ccccc3)[C@@H]1C2 (stereo partly drawn) [RL 241],,,1.5 µg/mL,1.5 µg/mL,1.5 µg/mL,,
"CCc1cc(C(N)=S)ccn1 [Eth, Ethionamide]",S,R,,,,S,
"CC[C@@H](CO)NCCN[C@@H](CC)CO [EMB, Ethambutol, reference compound]",R,R,,,,R,"MIC (MDR strain TN587; TN587, read-out: MIC of ethambutol, MDR strain, TN587): 12.5 to 25 µM; MIC (MDR strain TN3086 (3806); read-out: MIC of ethambutol, MDR strain, TN3086): 12.5 to 25 µM; MIC (MDR Strain TN576; read-out: MIC of ethambutol, MDR strain, TN576): 12.5 to 25 µM"
"[H]/N=C(/N)N[C@H]1[C@H](O)[C@@H](O)[C@H](O[C@@H]2O[C@@H](C)[C@](O)(C=O)[C@H]2O[C@@H]2O[C@@H](CO)[C@H](O)[C@@H](O)[C@@H]2NC)[C@@H](N/C(N)=N\[H])[C@@H]1O [SM, Streptomycin]",R,R,,,,R,
"O=C(O)c1cn(C2CC2)c2cc(N3CCNCC3)c(F)cc2c1=O [Cip, Ciprofloxacin]",S,S,,,,,
"C[C@@H]1[C@H]2C[C@@H](C[C@H]1NCCNC1CCCCCCC1)C2(C)C [Compound 59, N-(Cyclooctyl)-N′-(1R, 2R, 3R, 5S)-(−)-isopinocampheylethane-1,2-diamine]",,,0.05 µg/mL,0.05 µg/mL,0.1 µg/mL,,
"NC[C@H]1O[C@H](O[C@H]2[C@H](O)[C@@H](O[C@H]3O[C@H](CO)[C@@H](O)[C@H](N)[C@H]3O)[C@H](N)C[C@@H]2N)[C@H](O)[C@@H](O)[C@@H]1O [Kan, Kanamycin]",R,R,,,,R,
"NNC(=O)c1ccncc1 [INH, Isoniazid]",R,R,,,,R,
"CO[C@H]1/C=C/O[C@@]2(C)Oc3c(C)c(O)c4c(O)c(c(/C=N/N5CCN(C)CC5)c(O)c4c3C2=O)NC(=O)/C(C)=C\C=C\[C@H](C)[C@H](O)[C@@H](C)[C@@H](O)[C@@H](C)[C@H](OC(C)=O)[C@@H]1C [RIF, Rifampicin]",R,R,,,,R,
